For experiment [1], the system named is human dermal lymphatic endothelial cells (LECs), engineered lymphatic vessel. Kind of experiment: lymphatics-on-chip lymphatic drainage under cytokine challenge. It counts as cell-based. The text has this: (§1) To overcome the issues outlined above, a microfluidic 3D culture model featuring an engineered lymphatic vessel that can drain interstitial fluid was developed. The device includes a polydimethylsiloxane (PDMS) housing and two parallel cylindrical channels within a 3D collagen hydrogel (FIG. 1A). Human dermal lymphatic endothelial cells (LECs) seeded in one channel generated an engineered lymphatic vessel (FIG. 1A) that expressed lymphatic endothelial markers with appropriate apical-basal orientation (FIG. 1A and FIG. 1B). Furthermore, stimulation with the lymphangiogenic vascular endothelial growth factor C (VEGFC) triggered lymphatic sprouting (FIG. 1C). To characterize the integrity of the lymphatic endothelium within the device, their junctional organization was examined by immunofluorescence.
To functionally assess this rudimentary lymphatic vessel required a measure of lymphatic drainage. To accomplish this, the second, cell-free channel was pressurized with a surrogate lymph fluid composed of fluorescently labeled lymph molecules, including fatty acids, phospholipids, albumin, and insoluble particles (data not shown). The interstitial fluid pressure triggered convective fluid transport into the engineered lymphatic vessel. Lymph fluid drained by the lymphatic vessel accumulated in the connected reservoirs and was collected for analysis. Human dermal blood microvascular endothelial cells-generated blood vessels or cell-free channels were used as controls. […] Time-lapse microscopy of drainage further confirmed that fluid entered the luminal space of lymphatic vessels faster than that of blood vessels (FIG. 1H and data not shown).
Inflammation is a primary driver of lymphedema (2, 9, 10), so the next set of experiments tested whether inflammatory cytokines could impair drainage in this system. […] To begin to characterize what signaling pathways might be involved in tightening the lymphatic junctions, inhibitors that might impact IL-2-induced junction assembly were identified (data not shown): PP2, a Src-family of protein tyrosine kinase inhibitor; Wortmannin, a PI3K inhibitor; Y27632, a ROCK inhibitor; GGTI298, a Rap1 inhibitor; NSC23766, a Rac1 inhibitor; Blebbistatin, a Myosin II inhibitor; and Cpd22, an integrin-linked kinase inhibitor.

Experiment [2] concerns lymphedema in mouse tails. Kind of experiment: mouse tail lymphedema model (surgical ligation of peripheral lymphatics). It counts as in vivo. As to the method:
To investigate the potential efficacy of ROCK inhibition in lymphedema, Y27632 was tested in an established mouse model of lymphedema (13, 14). Lymphedema was induced by surgical ligation of peripheral lymphatics in mouse tails (FIG. 2G). […] Tail-injured mice were left without any treatment for one month.

Experiment [3] concerns LEC junctions. Kind of experiment: junction staining of engineered lymphatic vessels (immunofluorescence). Format: cell-based, human. Conditions: 20 μM, IL-2 challenge.
Excerpt: as §1
Inflammation is a primary driver of lymphedema (2, 9, 10), so the next set of experiments tested whether inflammatory cytokines could impair drainage in this system. […]

Experiment [4] deals with tail vein edema. Kind of experiment: mouse tail edema following cautery injury. It counts as in vivo, mice. The following applies: following cautery injury (FIG. 4A). As to the method: Tail volume changes were quantified (FIG. 4B), and drainage to the iliac lymph nodes was assesses 1 hour after intradermal injection of Alexa647-conjugated albumin into tails of mice treated with KD025 or vehicle (FIG. 4C).

The mark [5] stands for this setting: clinically used ROCK inhibitors, FIG. 2C.

“Also recorded” adds a separate entry of the source.

As to `C[C@@H](N)[C@H]1CC[C@H](C(=O)Nc2ccncc2)CC1` [Compound Y27632], the lymphatic drainage entry is reported as “normalized” in experiment [1] (GM-CSF and G-CSF treated conditions (FIG. 2A, 2B)); “completely normalized the impaired drainage” in experiment [1] (IL-2 treated lymphatic vessels). Also, in experiment [2] (1 h after intradermal Alexa647-conjugated albumin (FIG. 2H)), the “drainage to proximal lymph nodes compared to untreated control mice” value is listed as “tenfold higher drainage”. The “time to complete resolution of lymphedema following treatment” value in experiment [2] (delayed treatment, one month after tail injury) is at most 2 weeks. The “reversal of existing chronic lymphedema” value in experiment [2] (delayed treatment, one month after tail injury (FIG. 2I, 2J)) is on record as “completely resolved the lymphedema”. The “lymphedema (tail volume change), prevention” value in experiment [2] (treatment after surgical ligation (FIG. 2G)) is “completely prevented lymphedema”.
For the compound `O=S(=O)(c1cccc2cnccc12)N1CCCNCC1` [Fasudil], the lymphatic drainage result in experiment [1] (setting [5]) is recorded as “similarly improved lymphatic drainage”.
For `CC(C)NC(=O)COc1cccc(-c2nc(Nc3ccc4[nH]ncc4c3)c3ccccc3n2)c1` [KD025, 2-[3-[4-(1H-indazol-5-ylamino)-2-quinazolinyl]phenoxy]-N-(1-methylethyl)-acetamide], in experiment [1] (20 μM, IL-2 challenge (FIG. 3L)), the lymphatic drainage entry is listed as “reversed; also recorded: sufficient to reduce lymphatic drainage”. In addition, the “tightening of the LEC junctions” value in experiment [3] was “reversed tightening of the LEC junctions”. The “visible tail vein edema swelling” value in experiment [4] is “reduced visible tail vein edema swelling”.
Turning to `C[C@H]1CNCCCN1S(=O)(=O)c1cccc2cncc(F)c12` [Ripasudil], the lymphatic drainage result in experiment [1] (setting [5]) is on record as “similarly improved lymphatic drainage”.
